According to patent publication US20100160324A1, “PYRAZOLE DERIVATIVES AS THAT MODULATE THE ACTIVITY OF CDK, GSK AND AURORA KINASES” (ASTEX THERAPEUTICS LIMITED, priority 2004, published 2010):

How the values were obtained:
[1] = test system: malignant cells from B-cell chronic lymphocytic leukemia (B-CLL); settings: in vitro; cited from earlier work
CDK1/CyclinB = target: T1, CDK1/CyclinB (Homo sapiens, UniProt P06493); experiment: Activated CDK1/CyclinB activity assay; type: biochemical; settings: read-out: IC50 against CDK1 activity
T1 construct: purchased Upstate Discovery
T1 sequence (P06493 whole entry): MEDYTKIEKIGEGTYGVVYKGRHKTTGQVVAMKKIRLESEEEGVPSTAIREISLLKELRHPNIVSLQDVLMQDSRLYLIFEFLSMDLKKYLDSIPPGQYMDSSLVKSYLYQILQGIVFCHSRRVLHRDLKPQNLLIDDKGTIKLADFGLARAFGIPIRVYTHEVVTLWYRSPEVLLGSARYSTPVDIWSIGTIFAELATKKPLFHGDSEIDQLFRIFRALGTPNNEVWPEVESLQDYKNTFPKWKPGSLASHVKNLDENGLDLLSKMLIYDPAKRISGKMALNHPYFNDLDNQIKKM
T1 sequence (P14635 whole entry partner): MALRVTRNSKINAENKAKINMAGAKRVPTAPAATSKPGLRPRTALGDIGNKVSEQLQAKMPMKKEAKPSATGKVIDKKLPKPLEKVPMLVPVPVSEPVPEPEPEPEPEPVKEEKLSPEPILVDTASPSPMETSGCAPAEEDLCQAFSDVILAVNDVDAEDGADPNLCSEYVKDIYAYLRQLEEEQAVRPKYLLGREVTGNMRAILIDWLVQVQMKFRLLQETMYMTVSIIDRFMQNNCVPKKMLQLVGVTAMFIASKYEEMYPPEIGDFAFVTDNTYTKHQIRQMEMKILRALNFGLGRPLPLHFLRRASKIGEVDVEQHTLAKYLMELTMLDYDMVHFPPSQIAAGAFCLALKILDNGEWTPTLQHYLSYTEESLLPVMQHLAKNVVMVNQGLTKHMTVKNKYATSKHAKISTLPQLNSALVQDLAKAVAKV
Method: Measurement of Activated CDK1/Cycling Activity Assay (IC50)
CDK1/CyclinB assay is identical to the CDK2/CyclinA above except that CDK1/CyclinB (Upstate Discovery) is used and the enzyme is diluted to 6.25 nM.

Activated CDK2/CyclinA = Activated CDK2/CyclinA (Homo sapiens, UniProt P24941); experiment: Activated CDK2/CyclinA kinase inhibitory activity assay; type: biochemical; settings: read-out: IC50 against CDK2 activity
Method: Measurement of Activated CDK2/CyclinA Kinase Inhibitory Activity Assay (IC50)
Compounds of the invention were tested for kinase inhibitory activity using the following protocol.
Activated CDK2/CyclinA (Brown et al, Nat. Cell Biol., 1, pp 438-443, 1999; Lowe, E. D., et al Biochemistry, 41, pp 15625-15634, 2002) is diluted to 125 pM in 2.5× strength assay buffer (50 mM MOPS pH 7.2, 62.5 mM β-glycerophosphate, 12.5 mM EDTA, 37.5 mM MgCl2, […], 2.5 mM DTT, 2.5 mM sodium orthovanadate, 0.25 mg/ml bovine serum albumin), and 10 μl mixed with 10 μl of histone substrate mix (60 μl bovine histone H1 (Upstate Biotechnology, 5 mg/ml), 940 μl H2O, 35μ Ci γ^33P-ATP) and added to 96 well plates along with 5 μ of various dilutions of the test compound in DMSO (up to 2.5%). The reaction is allowed to proceed for 2 to 4 hours before being stopped with an excess of ortho-phosphoric acid (5 μl at 2%).
γ^33P-ATP which remains unincorporated into the histone H1 is separated from phosphorylated histone H1 on a Millipore MAPH filter plate. The wells of the MAPH plate are wetted with 0.5% orthophosphoric acid, and then the results of the reaction are filtered with a Millipore vacuum filtration unit through the wells. […] Once the filters have dried, 20 μl of Microscint 20 scintillant is added, and then counted on a Packard Topcount for 30 seconds. […]

[2] = test system: treatment-refractory primary Acute Myelogenous Leukemia (AML) cells from patients; settings: cited from earlier work

CC[C@H](CO)Nc1nc(NCc2ccccc2)c2ncn(C(C)C)c2n1 [CYC 202]
apoptosis of malignant B-CLL cells [1]: induce in vitro apoptosis

O=C(Nc1c[nH]nc1-c1cccnc1)c1c(F)cccc1F [Example 1, 2,6-difluoro-N-(3-pyridin-3-yl-1H-pyrazol-4-yl)-benzamide]
IC50 (CDK1/CyclinB): < 1000 nM
IC50 (Activated CDK2/CyclinA): < 1000 nM

CN1CC[C@H](c2c(O)cc(O)c3c(=O)cc(-c4ccccc4Cl)oc23)[C@H](O)C1 [Flavopiridol]
apoptosis of malignant B-CLL cells [1]: induce in vitro apoptosis

Cc1cc(Nc2cc(N3CCN(C)CC3)nc(Sc3ccc(NC(=O)C4CC4)cc3)n2)n[nH]1 [VX-680]
killing of treatment-refractory primary AML cells [2]: potently killed
